This is an account of results in ChEMBL document CHEMBL4419173, “Small-molecule inhibitors targeting g-protein-coupled rho guanine nucleotide exchange factors” (2014).

Each structure is given as a SMILES string. The source made the active and inactive calls. The rule behind the calls is not given here.

Assay [1] concerns the target Rho GEF 12/Transforming protein RhoA (Homo sapiens) (UniProt P61586+Q9NZN5). As to the kind of experiment: Inhibition of His6-tagged human LARG PH-DH domain expressed in mouse NIH/3T3 cells assessed as reduction in human full length GST-tagged RhoA (1 to 193 residues) interaction with LARG RhoGEF at 100 uM incubated for 1 hr by Western blot analysis relative to Y16. Format: cell-based. (In general: Immunoblotting shows a protein as a band on a membrane.)

Assay [2] relates to MCF7. As to the kind of experiment: Inhibition of RhoGEF in human MCF7 cells derived mammospheres assessed as inhibition of RhoA-mediated phospho-MLC formation at 10 uM incubated for 24 hrs by densitometry. The class given is cell-based.
For assay [3], the system named is MCF7. As to the kind of experiment: Inhibition of RhoGEF in human MCF7 cells derived mammospheres assessed as inhibition of 10% calf serum-induced RhoA-GTP formation at 10 uM incubated for 24 hrs by densitometry relative to control. Format: cell-based.
In assay [4] the test system is MCF7. As to the kind of experiment: Inhibition of RhoGEF in human MCF7 cells derived mammospheres assessed as inhibition of RhoA-mediated phospho-MLC formation incubated for 24 hrs by densitometry. Format: cell-based.
Assay [5] deals with MCF7. Description: Inhibition of RhoGEF in human MCF7 cells derived mammospheres assessed as inhibition of 10% calf serum-induced RhoA-GTP formation by measuring relative RhoA-GTP level incubated for 24 hrs by densitometry (reference value: 1). Format: cell-based.
For assay [6], the system named is MCF7. Description: Inhibition of RhoGEF in human MCF7 cells derived mammospheres assessed as inhibition of 10% calf serum-induced RhoA-GTP formation by measuring relative RhoA-GTP level at 30 uM incubated for 24 hrs by densitometry (reference value: 1). Format: cell-based.
For assay [7], the system named is MCF7. As to the kind of experiment: Inhibition of RhoGEF in human MCF7 cells derived mammospheres assessed as inhibition of 10% calf serum-induced RhoA-GTP formation by measuring relative RhoA-GTP level at 10 uM incubated for 24 hrs by densitometry (reference value: 1). The class given is cell-based.
Assay [8] concerns MCF7. As to the kind of experiment: Inhibition of RhoGEF in human MCF7 cells derived mammospheres assessed as inhibition of 10% calf serum-induced RhoA-GTP formation by measuring relative RhoA-GTP level at 5 uM incubated for 24 hrs by densitometry (reference value: 1). The class given is cell-based.
The subject of assay [9] is MCF7. Description: Inhibition of cell invasion of human MCF7 cells at 10 to 50 uM by Matrigel-coated transwell based assay. Format: functional.
Assay [10] relates to MCF7. Description: Inhibition of cell migration of human MCF7 cells at 10 to 50 uM. Format: functional, cell-based.
The test system of assay [11] is MCF7. As to the kind of experiment: Growth inhibition of human MCF7 cells at 5 to 50 uM. Format: functional, cell-based.
The species entered for assay [12] is Mus musculus. Description: Inhibition of RhoGEF in mouse NIH/3T3 cells assessed as inhibition of 10% calf serum-induced Rac1-GTP formation by measuring relative Rac1-GTP level at 50 uM incubated for 24 hrs by densitometry (reference value: 1). Format: cell-based.
The species entered for assay [13] is Mus musculus. As to the kind of experiment: Inhibition of RhoGEF in mouse NIH/3T3 cells assessed as inhibition of 10% calf serum-induced Cdc42-GTP formation by measuring relative Cdc42-GTP level at 50 uM incubated for 24 hrs by densitometry (reference value: 1). Format: cell-based.
The species named for assay [14] is Mus musculus. As to the kind of experiment: Inhibition of RhoGEF in mouse NIH/3T3 cells assessed as inhibition of 10% calf serum-induced RhoA-GTP formation by measuring relative RhoA-GTP level at 50 uM incubated for 24 hrs by densitometry (reference value: 1). The class given is cell-based.
The species named for assay [15] is Mus musculus. Description: Inhibition of RhoGEF in mouse NIH/3T3 cells assessed as inhibition of 10% calf serum-induced RhoA-GTP formation by measuring relative RhoA-GTP level at 30 uM incubated for 24 hrs by densitometry (reference value: 1). Format: cell-based.
The species named for assay [16] is Mus musculus. Description: Inhibition of RhoGEF in mouse NIH/3T3 cells assessed as inhibition of 10% calf serum-induced RhoA-GTP formation by measuring relative RhoA-GTP level at 10 uM incubated for 24 hrs by densitometry (reference value: 1). The class given is cell-based.
Assay [17] deals with T1, RhoGEF 1/Transforming protein RhoA (Homo sapiens) (UniProt P61586+Q92888). As to the kind of experiment: Binding affinity to human LARG (765 to 1138 residues) DH-PH module expressed in mouse NIH/3T3 cells assessed as reduction in LARG binding to human full length RhoA (1 to 193 residues) by measuring relative LARG binding level at 50 uM pull-down assay (reference value: 1 No unit). Format: cell-based.

The target in assay [18] is T1, RhoGEF 1/Transforming protein RhoA (Homo sapiens). As to the kind of experiment: Binding affinity to human LARG (765 to 1138 residues) DH-PH module expressed in mouse NIH/3T3 cells assessed as reduction in LARG binding to human full length RhoA (1 to 193 residues) by measuring relative LARG binding level at 30 uM pull-down assay (reference value: 1 No unit). The class given is cell-based.

Assay [19] has the same target. As to the kind of experiment: Binding affinity to human LARG (765 to 1138 residues) DH-PH module expressed in mouse NIH/3T3 cells assessed as reduction in LARG binding to human full length RhoA (1 to 193 residues) by measuring relative LARG binding level at 10 uM pull-down assay (reference value: 1 No unit). Format: cell-based.
The target is the same in assay [20]. As to the kind of experiment: Binding affinity to human LARG (765 to 1138 residues) DH-PH module expressed in mouse NIH/3T3 cells assessed as reduction in LARG binding to human full length RhoA (1 to 193 residues) by measuring relative LARG binding level at 5 uM pull-down assay (reference value: 1 No unit). Format: cell-based.
For assay [21], the species on record is Mus musculus. Description: Inhibition of RhoGEF in mouse NIH/3T3 cells assessed as reduction in 10% calf serum-induced rhoA-mediated actin stress fiber formation at 10 uM by rhodamine-phalloidin staining based assay. Format: cell-based.
Assay [22] is filed under the species Mus musculus. As to the kind of experiment: Inhibition of RhoGEF in mouse NIH/3T3 cells assessed as inhibition of 10% calf serum-induced RhoA-GTP formation by measuring reduction in RhoA-GTP level at 30 uM incubated for 24 hrs by densitometry relative to control. The class given is cell-based.
In assay [23] the target is T2, Rho guanine nucleotide exchange factor 12 (Homo sapiens, UniProt Q9NZN5). Description: Inhibition of human LARG (765 to 1138 residues) RhoGEF binding to human full length RhoA (1 to 193 residues).
T2 sequence (Q9NZN5 whole entry, the tested form may be a part): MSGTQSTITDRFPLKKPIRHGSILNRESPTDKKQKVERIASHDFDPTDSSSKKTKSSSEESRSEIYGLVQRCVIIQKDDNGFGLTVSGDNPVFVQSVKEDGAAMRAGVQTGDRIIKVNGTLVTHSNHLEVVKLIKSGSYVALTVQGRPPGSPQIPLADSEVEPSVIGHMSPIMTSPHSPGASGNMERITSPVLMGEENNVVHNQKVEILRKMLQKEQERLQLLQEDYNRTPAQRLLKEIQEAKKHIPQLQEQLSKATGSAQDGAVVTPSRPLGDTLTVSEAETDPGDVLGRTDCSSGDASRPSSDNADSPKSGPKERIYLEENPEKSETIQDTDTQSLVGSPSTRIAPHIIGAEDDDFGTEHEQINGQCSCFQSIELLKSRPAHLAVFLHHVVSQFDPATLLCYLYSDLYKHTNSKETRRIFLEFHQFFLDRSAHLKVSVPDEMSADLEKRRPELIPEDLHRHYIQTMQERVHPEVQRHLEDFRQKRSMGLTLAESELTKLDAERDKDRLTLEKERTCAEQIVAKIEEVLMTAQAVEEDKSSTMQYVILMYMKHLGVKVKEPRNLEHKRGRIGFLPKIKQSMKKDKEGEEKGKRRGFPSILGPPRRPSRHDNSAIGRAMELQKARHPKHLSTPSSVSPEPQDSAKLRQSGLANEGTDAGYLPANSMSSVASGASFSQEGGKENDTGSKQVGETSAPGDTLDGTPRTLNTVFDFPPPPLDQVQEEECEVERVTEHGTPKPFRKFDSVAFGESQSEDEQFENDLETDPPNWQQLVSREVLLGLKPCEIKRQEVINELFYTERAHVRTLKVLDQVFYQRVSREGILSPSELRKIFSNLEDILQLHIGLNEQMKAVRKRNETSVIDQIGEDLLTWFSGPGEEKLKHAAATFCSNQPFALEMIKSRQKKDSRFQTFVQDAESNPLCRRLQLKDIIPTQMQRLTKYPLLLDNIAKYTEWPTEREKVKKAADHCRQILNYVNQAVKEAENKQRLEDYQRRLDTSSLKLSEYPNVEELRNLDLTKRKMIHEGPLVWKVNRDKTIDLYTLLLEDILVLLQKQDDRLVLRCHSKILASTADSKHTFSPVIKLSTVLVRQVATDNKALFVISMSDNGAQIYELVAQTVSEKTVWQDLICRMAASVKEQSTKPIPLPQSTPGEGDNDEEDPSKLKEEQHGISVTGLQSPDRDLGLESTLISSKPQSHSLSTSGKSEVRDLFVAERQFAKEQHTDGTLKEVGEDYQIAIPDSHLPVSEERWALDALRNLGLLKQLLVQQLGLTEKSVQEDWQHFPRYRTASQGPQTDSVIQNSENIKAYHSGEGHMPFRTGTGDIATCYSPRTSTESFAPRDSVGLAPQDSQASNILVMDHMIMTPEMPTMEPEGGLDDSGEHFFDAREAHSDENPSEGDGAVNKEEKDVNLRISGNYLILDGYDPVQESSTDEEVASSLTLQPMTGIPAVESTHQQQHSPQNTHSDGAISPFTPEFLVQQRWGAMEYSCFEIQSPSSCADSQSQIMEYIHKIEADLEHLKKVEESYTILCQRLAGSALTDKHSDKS
For assay [24], the target named is T2, Rho guanine nucleotide exchange factor 12. Description: Inhibition of human LARG (765 to 1138 residues) RhoGEF-catalyzed guanine nucleotide-exchange reaction of human full length RhoA (1 to 193 residues) by measuring inhibition of TR-GTP association to RhoA by BODIPY-Texas Red(TR)-GTP nucleotide based assay.
For assay [25] the target is unchanged. As to the kind of experiment: Inhibition of human LARG (765 to 1138 residues) RhoGEF-catalyzed guanine nucleotide-exchange reaction of human full length RhoA (1 to 193 residues) by measuring inhibition of FL-GDP dissociation from RhoA by BODIPY-fluorescein(FL)-GDP nucleotide based assay.

Consider `O=C1/C(=C\c2ccccc2OCc2ccccc2)CNN1c1ccc(Br)cc1`, for which, in [1], the inhibition (in general, the drop in the measured response relative to a control, in per cent) turned out to be 7.34%.
As for `O=C1NN(c2ccccc2)C(=O)/C1=C/c1ccc(OCc2ccccc2)cc1`, the inhibition in [1] was 27.1%.
The same measure, in the same setting: under `COc1cc(/C=C2/C(=O)NN(c3ccccc3)C2=O)ccc1O` stands 13%; under `COc1cc(/C=C2/C(=O)NN(c3ccccc3)C2=O)cc(Br)c1OCCOc1ccc(C)cc1`, 13.8%.
With `N[C@H](Cc1c[nH]c2ccccc12)C(=O)N/N=C/c1ccc2nccnc2c1`, the inhibition is 50% in [2]; 50% in [3]; “Dose-dependent effect” in assay [4]; “Dose-dependent effect” in assay [5]; 80% in assay [22]. Also, the fold change (FC) in [6] is 0.32; in assay [7], 0.65; in assay [8], 0.98; in assay [12], 0.89; in assay [13] it was 0.96; in assay [14], 0.19. Also, the fold change (FC) in [15] is 0.38; in assay [16] it was 0.7; in [17], 0.15; in [18], 0.45; in assay [19], 0.63; in [20], 0.92. The inhibition entry in assay [9], in [10] and in assay [21] was “Active” throughout. In assay [11], the “growth inhibition (GI)” value was “Active”. Further, in [23], the IC50 (usually the concentration at which inhibition is half-maximal) was 10 µM.
For the compound `O=C(O)C1Nc2c(Cl)cc(Cl)cc2C2C=CCC12` (centres undefined), the inhibition result in assay [24] and in assay [25] was “Dose-dependent effect” in each case.
Take `O=C1NN(c2ccccc2)C(=O)/C1=C\C1=NCc2ccccc21`: in assay [1], the inhibition is 6.57%.
